Data: ChEMBL document CHEMBL1201862, “PubChem BioAssay data set” (2004)
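Step 1: Grow cells in 96-well plates. Step 2: Expose to compound for 48 hours at 5 concentrations. Step 3: Interpolate endpoints linearly; if unreached, use highest concentration. The concentration for 50% growth inhibition is given as GI50.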 Activity calls are given as the source filed them. Cut-off read from the data, not from the text of the source: active = GI50 up to about 1.1 µM and inactive = higher.

Key:
Assay in all cases: growth of human tumour cells (NCI), 48 h
MDA-MB-435 = test system: MDA-MB-435
HOP-62 = test system: HOP-62
MDA-MB-231 = test system: MDA-MB-231
SNB-19 = test system: SNB-19
NCI-H460 = test system: NCI-H460
SK-MEL-2 = test system: SK-MEL-2
NCI/ADR-RES = test system: NCI/ADR-RES
OVCAR-3 = test system: OVCAR-3
A549 = test system: A549
SF-539 = test system: SF-539
OVCAR-4 = test system: OVCAR-4
786-0 = test system: 786-0
SK-OV-3 = test system: SK-OV-3
OVCAR-5 = test system: OVCAR-5
IGROV-1 = test system: IGROV-1
HCT-15 = test system: HCT-15
LOX IMVI = test system: LOX IMVI
HCC 2998 = test system: HCC 2998
RPMI-8226 = test system: RPMI-8226
Hs-578T = test system: Hs-578T

Q: How did the GI50 (MDA-MB-435) turn out when CNC(=O)CCNC(=O)CCC(=O)OC was run?
A: > 100 µM (inactive)

Q: What about the GI50 (HOP-62) of the same compound?
A: > 100 µM (inactive)

Q: What about the GI50 (MDA-MB-231) of the same compound?
A: > 100 µM (inactive)

Q: And the GI50 (SNB-19)?
A: > 100 µM (inactive)

Q: What about the GI50 (NCI-H460) of the same compound?
A: > 100 µM (inactive)

Q: And the GI50 (SK-MEL-2)?
A: > 100 µM (inactive)

Q: What about the GI50 (NCI/ADR-RES) of the same compound?
A: > 100 µM (inactive)

Q: And the GI50 (OVCAR-3)?
A: > 100 µM (inactive)

Q: What about the GI50 (A549) of the same compound?
A: > 100 µM (inactive)

Q: What about the GI50 (SF-539) of the same compound?
A: > 100 µM (inactive)

Q: What about the GI50 (OVCAR-4) of the same compound?
A: > 100 µM (inactive)

Q: What about the GI50 (786-0) of the same compound?
A: > 100 µM (inactive)

Q: What about the GI50 (SK-OV-3) of the same compound?
A: > 100 µM (inactive)

Q: What about the GI50 (OVCAR-5) of the same compound?
A: > 100 µM (inactive)

Q: What does the source list for O=C(NNc1cn[nH]c(=O)c1Cl)/C(=C/c1ccc2c(c1)OCO2)NC(=O)c1ccccc1?
A: GI50 (MDA-MB-435): 79.4 µM (inactive); GI50 (IGROV-1): 23.6 µM (inactive); GI50 (HOP-62): 57.1 µM (inactive); GI50 (MDA-MB-231): > 100 µM (inactive); GI50 (SNB-19): 76.2 µM (inactive); GI50 (NCI-H460): 35.6 µM (inactive); GI50 (SK-MEL-2): 51.9 µM (inactive); GI50 (HCT-15): 31.7 µM; GI50 (NCI/ADR-RES): 35.6 µM (inactive); GI50 (LOX IMVI): 30.9 µM (inactive); GI50 (OVCAR-3): 71.3 µM (inactive); GI50 (HCC 2998): 41.3 µM (inactive); GI50 (A549): > 100 µM (inactive); GI50 (SF-539): 40.7 µM (inactive); GI50 (OVCAR-4): 32.8 µM (inactive); GI50 (786-0): 38.5 µM (inactive); GI50 (SK-OV-3): > 100 µM (inactive); GI50 (OVCAR-5): > 100 µM (inactive)

Q: Which results are given for O=C(CN1CCN(c2ccccc2)CC1)N1CCc2c([nH]c3ccccc23)C1c1cccnc1 (stereo not drawn)?
A: GI50 (IGROV-1): > 100 µM (inactive); GI50 (HOP-62): 34.1 µM (inactive); GI50 (SNB-19): 38.2 µM (inactive); GI50 (RPMI-8226): > 100 µM (inactive); GI50 (NCI-H460): 36.9 µM (inactive); GI50 (SK-MEL-2): > 100 µM (inactive); GI50 (HCT-15): 57.3 µM; GI50 (LOX IMVI): > 73.1 µM (inactive); GI50 (OVCAR-3): 64.9 µM (inactive); GI50 (HCC 2998): > 87.9 µM (inactive); GI50 (A549): 31.6 µM (inactive); GI50 (SF-539): 16.7 µM (inactive); GI50 (OVCAR-4): > 29.4 µM (inactive); GI50 (786-0): 15.3 µM (inactive); GI50 (SK-OV-3): 25.8 µM (inactive); GI50 (OVCAR-5): > 100 µM (inactive)

Q: Which GI50 (MDA-MB-435) does the source give for C=C1C(=O)O[C@@H]2[C@H]1CC[C@H](C)[C@]1(O)CCC(=O)[C@@]21C [CORONOPILIN] here?
A: > 10 µM (inactive)

Q: What about the GI50 (Hs-578T) of the same compound?
A: > 10 µM (inactive)

Q: And the GI50 (IGROV-1)?
A: > 10 µM (inactive)

Q: And the GI50 (HOP-62)?
A: > 10 µM (inactive)

Q: And the GI50 (SNB-19)?
A: > 10 µM (inactive)

Q: And the GI50 (RPMI-8226)?
A: > 10 µM (inactive)

Q: What about the GI50 (SK-MEL-2) of the same compound?
A: > 10 µM (inactive)

Q: And the GI50 (HCT-15)?
A: > 10 µM

Q: What about the GI50 (NCI/ADR-RES) of the same compound?
A: > 10 µM (inactive)

Q: And the GI50 (LOX IMVI)?
A: > 10 µM (inactive)

Q: What about the GI50 (OVCAR-3) of the same compound?
A: > 10 µM (inactive)

Q: And the GI50 (HCC 2998)?
A: > 10 µM (inactive)

Q: What about the GI50 (A549) of the same compound?
A: > 10 µM (inactive)

Q: And the GI50 (SF-539)?
A: > 10 µM (inactive)

Q: What about the GI50 (OVCAR-4) of the same compound?
A: > 10 µM (inactive)

Q: What about the GI50 (786-0) of the same compound?
A: > 10 µM (inactive)

Q: What about the GI50 (SK-OV-3) of the same compound?
A: > 10 µM (inactive)

Q: Which GI50 (MDA-MB-435) does the source give for CC(C)CC(NC(=O)C(CSc1ccc([N+](=O)[O-])cc1)Cc1ccccc1)C(=O)Nc1ccccc1 (stereo not drawn) here?
A: > 100 µM (inactive)

Q: What about the GI50 (IGROV-1) of the same compound?
A: 46.6 µM (inactive)

Q: And the GI50 (MDA-MB-231)?
A: > 100 µM (inactive)

Q: And the GI50 (SNB-19)?
A: 45.5 µM (inactive)

Q: What about the GI50 (RPMI-8226) of the same compound?
A: > 100 µM (inactive)

Q: And the GI50 (NCI-H460)?
A: 49.8 µM (inactive)

Q: What about the GI50 (SK-MEL-2) of the same compound?
A: > 100 µM (inactive)

Q: And the GI50 (HCT-15)?
A: > 100 µM

Q: What about the GI50 (NCI/ADR-RES) of the same compound?
A: 30.2 µM (inactive)

Q: What about the GI50 (LOX IMVI) of the same compound?
A: > 100 µM (inactive)

Q: And the GI50 (OVCAR-3)?
A: > 100 µM (inactive)

Q: And the GI50 (HCC 2998)?
A: > 100 µM (inactive)

Q: And the GI50 (A549)?
A: 93.5 µM (inactive)

Q: What about the GI50 (SF-539) of the same compound?
A: 47.9 µM (inactive)

Q: And the GI50 (OVCAR-4)?
A: 35.1 µM (inactive)

Q: What about the GI50 (786-0) of the same compound?
A: 44.7 µM (inactive)

Q: And the GI50 (SK-OV-3)?
A: > 100 µM (inactive)

Q: What about the GI50 (OVCAR-5) of the same compound?
A: > 100 µM (inactive)

Q: Which GI50 (MDA-MB-435) does the source give for CCCCCCCCCC[C@@H](O)[C@@H]1CC[C@@H]([C@@H]2CC[C@@H]([C@@H](O)CCCCCCCCCC[C@H](O)CC3=CC(C)OC3=O)O2)O1 (stereo partly drawn) here?
A: 1.09 µM (active)

Q: What about the GI50 (Hs-578T) of the same compound?
A: 4.04 µM (inactive)

Q: What about the GI50 (IGROV-1) of the same compound?
A: 3.48 µM (inactive)

Q: What about the GI50 (HOP-62) of the same compound?
A: 2.99 µM (inactive)

Q: And the GI50 (SNB-19)?
A: 4.6 µM (inactive)

Q: And the GI50 (RPMI-8226)?
A: 1.26 µM (inactive)

Q: And the GI50 (NCI-H460)?
A: 0.895 µM (active)

Q: And the GI50 (SK-MEL-2)?
A: 6.71 µM (inactive)

Q: And the GI50 (HCT-15)?
A: 3.45 µM

Q: What about the GI50 (NCI/ADR-RES) of the same compound?
A: 0.256 µM (active)

Q: And the GI50 (LOX IMVI)?
A: 0.834 µM (active)

Q: And the GI50 (OVCAR-3)?
A: 3.94 µM (inactive)

Q: And the GI50 (HCC 2998)?
A: 4.31 µM (inactive)

Q: And the GI50 (A549)?
A: 1.73 µM (inactive)

Q: What about the GI50 (SF-539) of the same compound?
A: 4.5 µM (inactive)

Q: What about the GI50 (OVCAR-4) of the same compound?
A: 6.28 µM (inactive)

Q: And the GI50 (786-0)?
A: 3.74 µM (inactive)

Q: What about the GI50 (SK-OV-3) of the same compound?
A: 3.92 µM (inactive)

Q: What about the GI50 (OVCAR-5) of the same compound?
A: 9.25 µM (inactive)

Q: Which GI50 (IGROV-1) does the source give for COc1ccc(NC(=O)C2C(=O)N(c3ccc(OC)cc3)C(=O)/C2=N/O)cc1 (stereo not drawn) here?
A: 40.1 µM (inactive)

Q: And the GI50 (HOP-62)?
A: 23.5 µM (inactive)

Q: What about the GI50 (SNB-19) of the same compound?
A: 29.4 µM (inactive)

Q: And the GI50 (RPMI-8226)?
A: > 71.9 µM (inactive)

Q: What about the GI50 (NCI-H460) of the same compound?
A: 21.9 µM (inactive)

Q: What about the GI50 (SK-MEL-2) of the same compound?
A: 32.2 µM (inactive)

Q: And the GI50 (HCT-15)?
A: > 100 µM

Q: What about the GI50 (LOX IMVI) of the same compound?
A: 57.8 µM (inactive)

Q: What about the GI50 (OVCAR-3) of the same compound?
A: 24.7 µM (inactive)

Q: What about the GI50 (HCC 2998) of the same compound?
A: 21 µM (inactive)

Q: What about the GI50 (A549) of the same compound?
A: 33.9 µM (inactive)

Q: What about the GI50 (SF-539) of the same compound?
A: 19.6 µM (inactive)

Q: And the GI50 (OVCAR-4)?
A: 17.2 µM (inactive)

Q: And the GI50 (786-0)?
A: 20.1 µM (inactive)

Q: What about the GI50 (SK-OV-3) of the same compound?
A: 20.2 µM (inactive)

Q: And the GI50 (OVCAR-5)?
A: > 100 µM (inactive)

Q: With COC(=O)[C@H]1ON2O[C@@H](O[C@H]3CCCC[C@@H]3C(C)(C)c3ccccc3)C[C@@H]3CC[C@H]1[C@@]32C as the compound, how does the GI50 (MDA-MB-435) read?
A: > 100 µM (inactive)

Q: And the GI50 (Hs-578T)?
A: > 100 µM (inactive)

Q: What about the GI50 (IGROV-1) of the same compound?
A: > 100 µM (inactive)

Q: What about the GI50 (HOP-62) of the same compound?
A: > 100 µM (inactive)

Q: What about the GI50 (RPMI-8226) of the same compound?
A: > 100 µM (inactive)

Q: And the GI50 (NCI-H460)?
A: > 100 µM (inactive)

Q: And the GI50 (HCT-15)?
A: > 100 µM

Q: What about the GI50 (NCI/ADR-RES) of the same compound?
A: > 100 µM (inactive)

Q: What about the GI50 (LOX IMVI) of the same compound?
A: > 100 µM (inactive)

Q: What about the GI50 (OVCAR-3) of the same compound?
A: > 100 µM (inactive)

Q: And the GI50 (HCC 2998)?
A: > 100 µM (inactive)

Q: What about the GI50 (A549) of the same compound?
A: > 100 µM (inactive)

Q: What about the GI50 (786-0) of the same compound?
A: > 100 µM (inactive)

Q: And the GI50 (SK-OV-3)?
A: > 100 µM (inactive)

Q: What about the GI50 (OVCAR-5) of the same compound?
A: > 100 µM (inactive)
